According to patent US20100022483A1, “Substituted Tetracycline Compounds” (Paratek Pharmaceuticals, Inc., priority 2008, published 2010):
≈ marks a conversion by molar mass, not a printed value. Where two headings read alike, the source gives them in different places.

Tests used:
[1] = Mammalian cytotoxicity assay (resazurin), COS-1 cells; assay type: cell-based; conditions: African green monkey, read-out: Cytotox. COS-1
Procedure, shortened: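 Resazurin read-out (0.042 mg/ml, 2 h at 37° C. then 30 min dark, room temperature; fluorescence 535/590 nm) follows 24-hour compound exposure of overnight-seeded cells, serially diluted. IC50 is the concentration giving 50% growth inhibition.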

[2] = tested on: 3T3 fibroblast cells; experiment: In vitro phototoxicity assay (neutral red; UV light-treated vs dark control plates); assay type: cell-based; conditions: for Photo Toxicity UV Tox50: UV light 50 minutes; for Photo Toxicity Dark Tox50: dark control plate
Procedure, shortened: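 Neutral red viability readout (A535 after EtOH/acetic acid extraction) compares paired plates: one exposed 50 min to UV at 1.6–1.8 mW/cm^2, one held in darkness, both dosed with compound in HBSS and recovered overnight. 3T3 fibroblast cells used; phototoxicity taken as the difference.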

[3] = in vitro; assay type: cell-based; conditions: Chinese hamster, Cytotox. CHO-K1
[4] = tested on: gram negative bacteria; experiment: In vitro anti-bacterial activity assay (broth dilution MIC), gram negative bacteria; assay type: cell-based, E. coli
Procedure, shortened: (§1)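 Broth dilution MIC following CLSI M7-A2: compounds serially diluted, log-phase test strains added to final ~5×10^5 CFU/ml, incubated ~18 hours at 35° C in ambient air. Plates read on microplate reader or visually; MIC is lowest concentration inhibiting growth.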

[5] = tested on: gram positive bacteria; experiment: In vitro anti-bacterial activity assay (broth dilution MIC), gram positive bacteria; assay type: cell-based, S. aureus; conditions: 18 h
Procedure, shortened: as §1

[6] = Escherichia coli, 18 h, E. coli D1 209, read-out: Median MIC's G− E. coli D1 209
[7] = Escherichia coli, 18 h, E. coli MG 1655, read-out: Median MIC's G− E. coli MG 1655
[8] = Escherichia coli, ATCC25922, 18 h, E. coli ATCC 25922, read-out: Median MIC's G− E. coli ATCC 25922
[9] = Pseudomonas aeruginosa, 18 h, P. aeruginosa K201 PAO6609, read-out: Median MIC's G− P. aeruginosa K201 PAO6609
[10] = Staphylococcus aureus, S. aureus MRSA5, read-out: Median MIC's G+ S. aureus MRSA5
[11] = Staphylococcus aureus, S. aureus RN450, read-out: Median MIC's G+ S. aureus RN450
[12] = Streptococcus pneumoniae, S. pneumoniae 157E-Strep, read-out: Median MIC's G+ S. pneumoniae 157E-Strep

Row | SMILES | IC50 at 24 h [1] | Photo Toxicity UV Tox50 [2] | Photo Toxicity Dark Tox50 [2] | IC50 at 24 h [3] | MIC [4, 6] | MIC [4, 7] | MIC [4, 8] | MIC [4, 9] | MIC [5, 10] | MIC [5, 11] | MIC [5, 12]
1 | CN(CCC#N)Cc1cccc(-c2ccc(O)c3c2C[C@H]2C[C@H]4[C@H](N(C)C)C(O)=C(C(N)=O)C(=O)[C@@]4(O)C(O)=C2C3=O)c1 [BL] | > 13.6 µM | >136.45 µM | >136.45 µM | > 13.6 µM | 16 µg/mL (≈ 27.3 µM) | 16 µg/mL (≈ 27.3 µM) | 4 µg/mL (≈ 6.82 µM) | 64 µg/mL (≈ 109 µM) | 2 µg/mL (≈ 3.41 µM) | 0.06 µg/mL (≈ 0.102 µM) | 0.06 µg/mL (≈ 0.102 µM)
2 | CN(C)[C@@H]1C(O)=C(C(N)=O)C(=O)[C@@]2(O)C(O)=C3C(=O)c4c(O)ccc(-c5cccc(CCCN6CCCCC6)c5)c4C[C@H]3C[C@@H]12 [DI] | 59.4 µM | 45.65 µM | >200 µM | 54.1 µM | 2 µg/mL (≈ 3.25 µM) | 4 µg/mL (≈ 6.5 µM) | 1 µg/mL (≈ 1.62 µM) | 64 µg/mL (≈ 104 µM) | 2 µg/mL (≈ 3.25 µM) | 0.0625 µg/mL (≈ 0.102 µM) | 0.06 µg/mL (≈ 0.0974 µM)
3 | COC(=O)C1CCN(Cc2ccc(O)c3c2C[C@H]2C[C@H]4[C@H](N(C)C)C(O)=C(C(N)=O)C(=O)[C@@]4(O)C(O)=C2C3=O)CC1 [AK] | > 140 µM | >140.07 µM | >140.07 µM | > 140 µM | 4 µg/mL (≈ 7.02 µM) | 0.5 µg/mL (≈ 0.878 µM) | 0.25 µg/mL (≈ 0.439 µM) | 64 µg/mL (≈ 112 µM) | 2 µg/mL (≈ 3.51 µM) | 0.06 µg/mL (≈ 0.105 µM) | 0.06 µg/mL (≈ 0.105 µM)
4 | COc1ccc(-c2ccc(O)c3c2C[C@H]2C[C@H]4[C@H](N(C)C)C(O)=C(C(N)=O)C(=O)[C@@]4(O)C(O)=C2C3=O)cc1CNCC(N)=O [BE] | > 10.8 µM | >107.82 µM | >107.82 µM | > 10.8 µM | 64 µg/mL (≈ 106 µM) | 16 µg/mL (≈ 26.4 µM) | 64 µg/mL (≈ 106 µM) | 64 µg/mL (≈ 106 µM) | 32 µg/mL (≈ 52.8 µM) | 1 µg/mL (≈ 1.65 µM) | 0.13 µg/mL (≈ 0.214 µM)
5 | CN(C)Cc1ccc(-c2ccc(O)c3c2C[C@H]2C[C@H]4[C@H](N(C)C)C(O)=C(C(N)=O)C(=O)[C@@]4(O)C(O)=C2C3=O)[nH]1 [BK] | > 148 µM | >147.66 µM | >147.66 µM | > 148 µM | 64 µg/mL (≈ 119 µM) | 4 µg/mL (≈ 7.45 µM) | 4 µg/mL (≈ 7.45 µM) | 32 µg/mL (≈ 59.6 µM) | 4 µg/mL (≈ 7.45 µM) | 0.25 µg/mL (≈ 0.466 µM) | 0.13 µg/mL (≈ 0.242 µM)
6 | CN(C)CCNC(=O)c1cccc(-c2ccc(O)c3c2C[C@H]2C[C@H]4CC(O)=C(C(N)=O)C(=O)[C@@]4(O)C(O)=C2C3=O)c1 [Z, (4aS,5aR,12aS)-7-[3-(2-Dimethylamino-ethylcarbamoyl)-phenyl]-3,10,12,12a-tetrahydroxy-1,11-dioxo-1,4,4a,5,5a,6,11,12a-octahydro-naphthacene-2-carboxylic acid amide] | > 15.9 µM | >158.85 µM | >158.85 µM | > 15.9 µM | 64 µg/mL (≈ 114 µM) | 64 µg/mL (≈ 114 µM) | 64 µg/mL (≈ 114 µM) | 64 µg/mL (≈ 114 µM) | 64 µg/mL (≈ 114 µM) | 64 µg/mL (≈ 114 µM) | 64 µg/mL (≈ 114 µM)
7 | CN(C)CCNC(=O)c1cccc(-c2ccc(O)c3c2C[C@H]2C[C@H]4[C@H](N(C)C)C(O)=C(C(N)=O)C(=O)[C@@]4(O)C(O)=C2C3=O)c1 [AB] | > 200 µM | >200 µM | >200 µM | > 200 µM | 64 µg/mL (≈ 106 µM) | 16 µg/mL (≈ 26.5 µM) | 32 µg/mL (≈ 52.9 µM) | 64 µg/mL (≈ 106 µM) | 32 µg/mL (≈ 52.9 µM) | 0.5 µg/mL (≈ 0.827 µM) | 0.25 µg/mL (≈ 0.413 µM)
8 | CC1CCN(CC(=O)c2ccc(O)c3c2C[C@H]2C[C@H]4[C@H](N(C)C)C(O)=C(C(N)=O)C(=O)[C@@]4(O)C(O)=C2C3=O)CC1 [BH, 7-[2-(4-methyl-piperidin-1-yl)acetyl]-Sancycline] | > 136 µM | >135.66 µM | >135.66 µM | > 136 µM | 0.25 µg/mL (≈ 0.452 µM) | 0.06 µg/mL (≈ 0.108 µM) | 0.06 µg/mL (≈ 0.108 µM) | 32 µg/mL (≈ 57.8 µM) | 0.06 µg/mL (≈ 0.108 µM) | 0.06 µg/mL (≈ 0.108 µM) | 0.06 µg/mL (≈ 0.108 µM)
9 | CN(C)CCNC(=O)c1ccc(-c2ccc(O)c3c2C[C@H]2C[C@H]4[C@H](N(C)C)C(O)=C(C(N)=O)C(=O)[C@@]4(O)C(O)=C2C3=O)cc1 [AD] | > 43.5 µM | 135.17 µM | >140.2 µM | > 43.5 µM | 64 µg/mL (≈ 106 µM) | 8 µg/mL (≈ 13.2 µM) | 16 µg/mL (≈ 26.5 µM) | 64 µg/mL (≈ 106 µM) | 16 µg/mL (≈ 26.5 µM) | 0.25 µg/mL (≈ 0.413 µM) | 0.13 µg/mL (≈ 0.215 µM)
10 | CC(C)N1CCN(CC(=O)c2ccc(O)c3c2C[C@H]2C[C@H]4[C@H](N(C)C)C(O)=C(C(N)=O)C(=O)[C@@]4(O)C(O)=C2C3=O)CC1 [BX] | > 130 µM | >130.05 µM | >130.05 µM | > 130 µM | 64 µg/mL (≈ 110 µM) | 8 µg/mL (≈ 13.7 µM) | 8 µg/mL (≈ 13.7 µM) | 64 µg/mL (≈ 110 µM) | 4 µg/mL (≈ 6.87 µM) | 1 µg/mL (≈ 1.72 µM) | 0.5 µg/mL (≈ 0.858 µM)
11 | CC(=O)NCCC(=O)c1ccc(O)c2c1C[C@H]1C[C@H]3[C@H](N(C)C)C(O)=C(C(N)=O)C(=O)[C@@]3(O)C(O)=C1C2=O [CI] | > 160 µM | >159.57 µM | >159.57 µM | > 160 µM | 64 µg/mL (≈ 121 µM) | 64 µg/mL (≈ 121 µM) | 64 µg/mL (≈ 121 µM) | 64 µg/mL (≈ 121 µM) | 64 µg/mL (≈ 121 µM) | 2 µg/mL (≈ 3.79 µM) | 2 µg/mL (≈ 3.79 µM)
12 | CN(C)CCCCNC(=O)c1cccc(-c2ccc(O)c3c2C[C@H]2C[C@H]4[C@H](N(C)C)C(O)=C(C(N)=O)C(=O)[C@@]4(O)C(O)=C2C3=O)c1 [CL] | > 41.7 µM | >134.63 µM | >134.63 µM | > 41.7 µM | 64 µg/mL (≈ 101 µM) | 64 µg/mL (≈ 101 µM) | 64 µg/mL (≈ 101 µM) | 64 µg/mL (≈ 101 µM) | 64 µg/mL (≈ 101 µM) | 4 µg/mL (≈ 6.32 µM) | 4 µg/mL (≈ 6.32 µM)
13 | COCCN(C)CC(=O)c1ccc(O)c2c1C[C@H]1C[C@H]3[C@H](N(C)C)C(O)=C(C(N)=O)C(=O)[C@@]3(O)C(O)=C1C2=O [BO] | > 154 µM | >154.09 µM | >154.09 µM | > 154 µM | 64 µg/mL (≈ 118 µM) | 2 µg/mL (≈ 3.68 µM) | 2 µg/mL (≈ 3.68 µM) | 64 µg/mL (≈ 118 µM) | 4 µg/mL (≈ 7.36 µM) | 0.5 µg/mL (≈ 0.92 µM) | 0.25 µg/mL (≈ 0.46 µM)
